In PubChem BioAssay AID2060912 (Molecular Pharmacology Branch, DTP, NCI, 2025) one finds IC50 and viability, T/C data, which are given here for two molecules.

Some results are limits rather than exact numbers.

The subject of the assay is HUVEC/MSC spheroids viability. In words: Human HUVEC/MSC cell line growth inhibition [KRAS2].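 For viability, T/C: percent of DMSO vehicle control luminescence so 100% = untreated viability.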 To be noted: for viability, T/C: stronger effect = lower value. The source says:
Multicellular complex tumor spheroid response to RAS pathway inhibitors in combination with a targeted agents in patient-derived cell lines with oncogenic KRAS variants from multiple cancer types
A high-throughput screen of multi-cell type tumor spheroids was designed to identify active combinations of targeted small molecules and KRAS pathway inhibitors. Complex spheroids include a stromal component modeled by human endothelial cells (HUVEC) and fibroblasts modeled by human mesenchymal stem cells (MSCs). The concentration ranges selected for each drug and investigational agent were based upon clinically achievable concentrations if the clinical Cmax of the agent was known. * [This particular assayID is a followup dataset requested by reviewers of the manuscript. It is a test of the HUVEC and MSC without the tumor cells, and was conducted using different drug plates and a different plate layout.]
Compounds. The drugs and investigational agents: BI-3406 (NSC825286), BAY-293 (NSC824723), batoprotafib (TNO155; NSC825523), sotorasib (AMG 510; NSC818433), MRTX1257 (NSC819558), elimusertib (BAY 1895344; NSC800525), molibresib (GSK525762; NSC774829), temuterkib (LY3214996; NSC803410), venetoclax (NSC766270), alisertib (NSC759677), olaparib (NSC753686), talazoparib (NSC767125), erdafitinib (NSC781556), ipatasertib (NSC767898), cabozantinib (NSC761068), nintedanib (NSC756659), abemaciclib (NSC768073), docetaxel (NSC628503), trametinib (NSC758246), and sapanisertib (NSC764658) were obtained from the National Cancer Institute (NCI) Developmental Therapeutics Program Chemical Repository. The FDA-approved anticancer drug set is available from the Developmental Therapeutics Program. […] The stock solutions were prepared in dimethyl sulfoxide (DMSO, Sigma-Aldrich, St. Louis, MO, cat. D2650) at 800-fold the tested concentration and stored at -70 degrees C prior to their use. All drugs and investigational agents were tested over a range starting from a high concentration at or near the clinical Cmax and decreasing in half-log increments. If the clinical Cmax for an agent had not been determined, the highest concentration tested was 10 microM.
Cell Culture. All cells were maintained in an incubator at 37 degrees C and 5% CO2 with 95% humidity. The PDC lines were cultured according to standard operating procedures established by the NCI PDMR (https://pdmr.cancer.gov/sops/default.htm). Briefly, all PDCs were thawed and cultured in Matrigel-coated flasks prepared with a working solution of 1X Ham's F-12 nutrient mix, without supplementation (Invitrogen, Waltham, MA, cat. 11765054), 100 U/mL penicillin-streptomycin (Invitrogen, cat. 15140122), and 2.5% Matrigel (Corning Inc., Corning, NY, cat. 354248) for the first three passages. All PDCs were cultured in complete DMEM/F-12 media containing advanced DMEM/F-12 (Invitrogen, cat. 12634028), 4.9% defined fetal bovine serum, heat inactivated (HyClone Laboratories Inc., Logan, UT, cat. SH30070.03HI), 389 ng/mL hydrocortisone (Sigma-Aldrich, cat. H4001), 9.7 ng/mL human EGF recombinant protein (Invitrogen, cat. PHG0313), 23.4 microg/mL adenine (Sigma-Aldrich, cat. A2786), 97.3 U/mL penicillin-streptomycin (Invitrogen, cat. 15140122), 1.9 mM L-glutamine (Invitrogen, cat. 25030081), and 9.7 microM Y-27632 dihydrochloride (Tocris Bioscience, Bristol, United Kingdom, cat. 1254). The PDCs were cultured in complete DMEM/F12 media without 9.7 microM Y-27632 dihydrochloride for at least two passages prior to the screen. The established cell line HOP-62 was cultured in RPMI 1640 medium, HEPES (Invitrogen, cat. 22400105) with 10% defined fetal bovine serum (HyClone Laboratories Inc., cat. SH30070.03) and 2 mM L-glutamine (Invitrogen, cat. 25030081). The pooled donor HUVEC were cultured in endothelial cell growth medium 2 (PromoCell, Heidelberg, Germany, cat. C-22011) and the hMSC were cultured in mesenchymal stem cell growth medium 2 (PromoCell, cat. C-28009). […]

As usually defined, the IC50 is the concentration needed to halve the response being measured. The viability, T/C is the result in the treated group divided by that in the control group, in per cent. As for `Cn1ncnc1[C@H]1c2n[nH]c(=O)c3cc(F)cc(c23)N[C@@H]1c1ccc(F)cc1` + COc1cc2nc(C)nc(NC(C)c3cc(N)cc(C(F)(F)F)c3)c2cc1OC1CCOC1, the IC50 (curve of first compound, second compound 0.0316 µM) was more than 100 nM; the IC50 (curve of first compound, second compound 0.1 µM) is more than 100 nM; the IC50 (curve of first compound, second compound 0.316 µM) is more than 100 nM; the IC50 (curve of first compound, second compound 1 µM) was more than 100 nM; the IC50 (curve of first compound, second compound 3.16 µM) was more than 100 nM; the IC50 (curve of first compound, second compound 10 µM) was more than 100 nM. Besides, the viability, T/C runs as follows: (second compound 0.0316 µM, first compound 0.000316 µM) 107%; (second compound 0.0316 µM, first compound 0.001 µM) 110%; (second compound 0.0316 µM, first compound 0.00316 µM) 118%; (second compound 0.0316 µM, first compound 0.01 µM) 89.7%; (second compound 0.0316 µM, first compound 0.0316 µM) 109%; (second compound 0.0316 µM, first compound 0.1 µM) 96.8%. Moreover, the viability, T/C was 89.2% (second compound 0.1 µM, first compound 0.000316 µM); 96.9% (second compound 0.1 µM, first compound 0.001 µM); 100% (second compound 0.1 µM, first compound 0.00316 µM); 117% (second compound 0.1 µM, first compound 0.01 µM); 96% (second compound 0.1 µM, first compound 0.0316 µM); 107% (second compound 0.1 µM, first compound 0.1 µM). In addition, the viability, T/C was 92.9% (second compound 0.316 µM, first compound 0.000316 µM); 101% (second compound 0.316 µM, first compound 0.001 µM); 102% (second compound 0.316 µM, first compound 0.00316 µM); 103% (second compound 0.316 µM, first compound 0.01 µM); 97.3% (second compound 0.316 µM, first compound 0.0316 µM); 89.3% (second compound 0.316 µM, first compound 0.1 µM). For the same molecule, the viability, T/C runs as follows: (second compound 1 µM, first compound 0.000316 µM) 95.2%; (second compound 1 µM, first compound 0.001 µM) 89.9%; (second compound 1 µM, first compound 0.00316 µM) 99.3%; (second compound 1 µM, first compound 0.01 µM) 88.9%; (second compound 1 µM, first compound 0.0316 µM) 89.3%; (second compound 1 µM, first compound 0.1 µM) 79.5%. For the same molecule, the viability, T/C reads like this: (second compound 3.16 µM, first compound 0.000316 µM) 90.9%; (second compound 3.16 µM, first compound 0.001 µM) 104%; (second compound 3.16 µM, first compound 0.00316 µM) 85.8%; (second compound 3.16 µM, first compound 0.01 µM) 101%; (second compound 3.16 µM, first compound 0.0316 µM) 92.3%; (second compound 3.16 µM, first compound 0.1 µM) 81.1%. In addition, the viability, T/C was 72% (second compound 10 µM, first compound 0.000316 µM); 75.9% (second compound 10 µM, first compound 0.001 µM); 81.9% (second compound 10 µM, first compound 0.00316 µM); 66.8% (second compound 10 µM, first compound 0.01 µM); 77.6% (second compound 10 µM, first compound 0.0316 µM); 73.3% (second compound 10 µM, first compound 0.1 µM).

For `COc1cc2nc(C)nc(NC(C)c3cc(N)cc(C(F)(F)F)c3)c2cc1OC1CCOC1` (stereo unspecified), the viability, T/C was 99.5% [middle of 9 runs] (compound 0.0316 µM), 97.3% [middle of 9 runs] (compound 0.316 µM) and 66.7% [middle of 9 runs] (compound 10 µM). The 50% inhibitory concentration (IC50) (compound alone, run of 05/05/2024) was more than 10000 nM.
